The values that follow come from patent publication US6114334A, “Piperazine derivatives as therapeutic agents” (Knoll Aktiengesellschaft, priority 1995, dated 2000).

SMILES strings stand for the structures.

One test has as its target T1, 5-HT1A receptors (Rattus norvegicus, UniProt P19327).
T1 sequence (P19327 1-422): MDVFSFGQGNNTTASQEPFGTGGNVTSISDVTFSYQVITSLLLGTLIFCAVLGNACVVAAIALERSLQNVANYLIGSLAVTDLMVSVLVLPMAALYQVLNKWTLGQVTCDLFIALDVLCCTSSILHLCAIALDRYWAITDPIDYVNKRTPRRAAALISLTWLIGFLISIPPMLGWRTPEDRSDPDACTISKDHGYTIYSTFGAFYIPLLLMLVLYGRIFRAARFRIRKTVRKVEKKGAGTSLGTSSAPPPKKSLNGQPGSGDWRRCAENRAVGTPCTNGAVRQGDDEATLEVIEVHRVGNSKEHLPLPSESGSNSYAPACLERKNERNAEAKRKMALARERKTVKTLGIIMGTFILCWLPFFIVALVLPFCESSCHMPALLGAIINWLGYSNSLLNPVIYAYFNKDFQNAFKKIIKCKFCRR
Kind of test: inhibition of [3H]8-OH-DPAT binding to 5-HT1A receptors in vitro. The arrangement: species or system rat (male Sprague-Dawley, hippocampal tissue). As to conditions: rat hippocampus; for Ki: [3H]8-OH-DPAT 2 nM, 25° C., 30 min; for inhibition at 1 µM: 10^-6 M, [3H]8-OH-DPAT, read-out: % displacement at 10^-6 M, 5-HT1A.

The next test has as its target T2, α2D-adrenoceptors (Rattus norvegicus, UniProt P22909).
T2 sequence (P22909 1-465): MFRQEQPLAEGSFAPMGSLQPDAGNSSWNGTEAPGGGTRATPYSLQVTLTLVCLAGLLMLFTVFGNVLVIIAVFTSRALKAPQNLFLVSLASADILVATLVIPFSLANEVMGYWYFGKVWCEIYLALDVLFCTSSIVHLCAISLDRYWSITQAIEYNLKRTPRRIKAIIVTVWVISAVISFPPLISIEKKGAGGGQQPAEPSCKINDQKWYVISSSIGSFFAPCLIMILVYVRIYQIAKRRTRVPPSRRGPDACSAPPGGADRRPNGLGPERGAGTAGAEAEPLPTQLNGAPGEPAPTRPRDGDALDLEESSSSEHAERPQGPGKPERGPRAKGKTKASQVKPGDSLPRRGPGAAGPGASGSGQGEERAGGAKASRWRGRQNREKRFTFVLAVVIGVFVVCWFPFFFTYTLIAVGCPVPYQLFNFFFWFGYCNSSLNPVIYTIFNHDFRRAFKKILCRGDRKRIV
Put plainly: inhibition of tritiated idazoxan binding to α2D-adrenoceptors in vitro. Set-up: species or system rat (male Charles River CD, frontal cortical tissue). As to conditions: rat frontal cortex; for Ki: [3H]idazoxan 1 nM, 0° C., 75 min.

The next test addresses D2 dopamine receptors (Rattus norvegicus, UniProt P61169). Put plainly: inhibition of tritiated (S)-sulpiride binding to D2 dopamine receptors in vitro. Set-up: species or system rat (male Charles River CD, striatal tissue). As to conditions: rat striatum; for Ki: tritiated (S)-sulpiride 1 nM, 4° C., 40 min.
The next test deals with α1-adrenoceptors. Put plainly: inhibition of 7-methoxy-[3H]prazosin binding to α1-adrenoceptors in vitro. Set-up: species or system rat (male Charles River CD, whole cortical tissue). As to conditions: rat whole cortex, 30 min; for Ki: 7-methoxy-[3H]prazosin 0.1 nM, 30° C. As for the experimental part: Whole cortical tissue from the brains of male Charles River CD rats weighing between 150-250 g were homogenised in ice-cold 50 mM Tris-HCl, pH 7.6 (at 25° C.; 1:40 w/v) and centrifuged at 1000 g at 4° C. for 10 minutes. The supernatant was centrifuged at 30,000 g at 4° C. for 10 minutes. The pellet was rehomogenised in 50 mM Tris-HCl, pH 7.6 (1:40 w/v) and centrifuged at 30,000 g at 4° C. for 10 minutes. The final pellet was resuspended in 50 mM Tris-HCl, pH 7.6 (equivalent to 12.5 mg wet weight of tissue/ml) and used immediately in the binding assay. Aliquots (400 μl; equivalent to 5 mg wet weight of tissue/tube) of this suspension were added to tubes containing the ligand (50 μl; 0.1 nM) and distilled water (50 μl; total binding) or phentolamine (50 μl; 5 μM; non-specific binding) or test compound (50 μl; at a single concentration of 10^-6 M or at 10 concentrations ranging from 10^-11 -10^-3 M). The ligand was 7-methoxy-[^3 H]prazosin and the mixture was incubated at 30° C. for 30 minutes before the incubation was terminated by rapid filtration. The filters were washed with ice-cold Tris-HCl buffer and dried. The filters were punched out into vials, scintillation fluid added and radioactivity determined by liquid scintillation counting. The percentage displacement of specific binding of the tritiated ligand was calculated for the single concentration (10^-6 M) of test compound. […] The concentration which gave 50% inhibition of specific binding (IC50) was obtained from the curve. The inhibition coefficient Ki was then calculated using the formula [formula] in which [ligand] is the concentration of the tritiated ligand used and KD is the equilibrium dissociation constant for the ligand.

D2 dopamine receptors, sequence (P61169 whole entry): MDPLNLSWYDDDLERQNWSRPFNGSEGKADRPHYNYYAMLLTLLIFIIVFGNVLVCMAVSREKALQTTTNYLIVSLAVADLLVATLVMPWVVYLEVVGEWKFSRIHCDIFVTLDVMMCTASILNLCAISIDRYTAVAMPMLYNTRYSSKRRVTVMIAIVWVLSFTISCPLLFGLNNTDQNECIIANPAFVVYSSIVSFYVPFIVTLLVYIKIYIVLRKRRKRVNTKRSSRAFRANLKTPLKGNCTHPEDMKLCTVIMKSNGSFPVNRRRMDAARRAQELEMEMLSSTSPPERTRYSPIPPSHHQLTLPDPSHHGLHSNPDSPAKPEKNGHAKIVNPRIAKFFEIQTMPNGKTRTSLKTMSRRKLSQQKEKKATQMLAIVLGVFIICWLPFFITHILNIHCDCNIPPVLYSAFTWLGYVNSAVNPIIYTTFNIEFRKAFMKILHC

In the case of `COc1ccccc1N1CCN(Cc2c(N)n(C)n(-c3ccccc3)c2=O)CC1` [Example 1, 3-amino-4-[4-(2-methoxyphenyl)piperazin-1-ylmethyl]-2-methyl-1-phenyl-3-pyrazolin-5-one], the Ki at 5-HT1A receptors came to 0.169 µM; on α2D-adrenoceptors, 0.13 µM; on D2 dopamine receptors it was 0.192 µM; on α1-adrenoceptors, 0.023 µM.

On to `COc1ccccc1N1CCN(Cc2c(C3CC3)nn(-c3ccccc3)c2N)CC1` [Example 9, 5-amino-3-cyclopropyl-4-[4-(2-methoxyphenyl)piperazin-1-ylmethyl]-1-phenylpyrazole], for which the Ki is 0.049 µM at 5-HT1A receptors, 0.081 µM at α2D-adrenoceptors, 0.374 µM on D2 dopamine receptors and 0.009 µM on α1-adrenoceptors.

Consider `Nc1c(CN2CCN(c3cccc(C(F)(F)F)c3)CC2)c(C2CC2)nn1-c1ccccc1` [Example 15, 5-Amino-3-cyclopropyl-1-phenyl-4-{4-[3-(trifluoromethyl)phenyl]piperazin-1-ylmethyl}pyrazole], for which the inhibition at 1 µM at 5-HT1A receptors came out at 67%. The Ki on α2D-adrenoceptors is over 0.5 µM; on D2 dopamine receptors, 0.337 µM; on α1-adrenoceptors, over 0.5 µM.

As for `C=CCN1C(=O)C(C)(CN2CCN(c3ccccc3OC)CC2)N=C1c1cccnc1` (centres unmarked) [Example 39, 1-allyl-4-[4-(2-methoxyphenyl)piperazin-1-ylmethyl]-4-methyl-2-(3-pyridyl)-2-imidazolin-5-one], the figures for the inhibitory constant (Ki) on 5-HT1A receptors, at α2D-adrenoceptors and on α1-adrenoceptors were 0.101 µM, 0.115 µM and over 0.5 µM, respectively. In addition, the inhibition at 1 µM on D2 dopamine receptors (10^-6 M, tritiated (S)-sulpiride, read-out: % displacement at 10^-6 M, D2) amounted to 72%.

Consider `C=CCn1c(-c2cccnc2)nn(CN2CCN(c3cccc4c3OCCO4)CC2)c1=S` [Example 45, 4-allyl-2-[4-(1,4-benzodioxan-5-yl)piperazin-1-ylmethyl]-5-(3-pyridyl)-1,2,4-triazole-3(2H,4H)-thione], for which the inhibition constant Ki is 0.031 µM at 5-HT1A receptors, 0.225 µM on α2D-adrenoceptors, 0.322 µM on D2 dopamine receptors and over 0.5 µM on α1-adrenoceptors.

On to `C=CCn1c(-c2cccnc2)nn(CCCCN2CCN(c3ccccc3OC)CC2)c1=O` [Example 46, 4-allyl-2-{4-[4-(2-methoxyphenyl)piperazin-1-yl]butyl}-5-(3-pyridyl)-1,2,4-triazol-3(2H,4H)-one], for which the inhibition constant Ki on 5-HT1A receptors was 0.064 µM; at α2D-adrenoceptors it was over 0.5 µM; at D2 dopamine receptors, 0.048 µM; on α1-adrenoceptors, 0.016 µM.

Turning to `C=CCn1c(-c2cccnc2)nn(CN2CCN(c3ccccc3OC)CC2)c1=S` [Example 47, 4-Allyl-2-[4-(2-methoxyphenyl)piperazin-1-ylmethyl]-5-(3-pyridyl)-1,2,4-triazole-3(2H,4H)-thione], the Ki at 5-HT1A receptors was 0.152 µM; on α2D-adrenoceptors it was 0.178 µM; at D2 dopamine receptors, 0.262 µM; at α1-adrenoceptors, over 0.5 µM.

Take `COc1ccccc1N1CCN(Cn2nc(-c3ccc(Cl)cc3)n(-c3cccnc3)c2=S)CC1` [Example 48, 5-(4-Chlorophenyl)-2-[4-(2-methoxyphenyl)piperazin-1-ylmethyl]-4-(3-pyridyl)-1,2,4-triazole-3(2H,4H)-thione]: the Ki at 5-HT1A receptors was determined as 0.108 µM; on α2D-adrenoceptors, 0.071 µM; on D2 dopamine receptors it was 0.2 µM; on α1-adrenoceptors, 0.43 µM.

For `C=CCn1c(-c2ccncc2)nn(CN2CCN(c3ccccc3OC)CC2)c1=S` [Example 49, 4-Allyl-2-[4-(2-methoxyphenyl)piperazin-1-ylmethyl]-5-(4-pyridyl)-1,2,4-triazole-3(2H,4H)-thione], the Ki at 5-HT1A receptors is 0.123 µM; at α2D-adrenoceptors, 0.146 µM; at D2 dopamine receptors, 0.121 µM; at α1-adrenoceptors, over 0.5 µM.

For the compound `COCCCn1c(-c2ccncc2)nn(CN2CCN(c3ccccc3OC)CC2)c1=S` [Example 50, 2-[4-(2-Methoxyphenyl)piperazin-1-ylmethyl]-4-(3-methoxypropyl)-5-(4-pyridyl)-1,2,4-triazole-3(2H,4H)-thione], the inhibitory constant (Ki) on 5-HT1A receptors is 0.17 µM; on α2D-adrenoceptors, 0.194 µM; on D2 dopamine receptors it was 0.192 µM; at α1-adrenoceptors, over 0.5 µM.

`COc1ccccc1N1CCN(Cn2nc(-c3ccncc3)n(C)c2=S)CC1` [Example 51, 2-[4-(2-Methoxyphenyl)piperazin-1-ylmethyl]-4-methyl-5-(4-pyridyl)-1,2,4-triazole-3(2H,4H)-thione]: the inhibition at 1 µM on 5-HT1A receptors came out at 54%. The inhibitory constant (Ki) is over 0.5 µM at α2D-adrenoceptors and 0.134 µM on D2 dopamine receptors. Further, the “% displacement at 10^-6 M, α1” value in the test with α1-adrenoceptors (10^-6 M, 7-methoxy-[3H]prazosin, 1 µM) was found to be 53%.

Regarding `C=CCn1c(-c2ccccc2)nn(CN2CCN(c3ccccc3OC)CC2)c1=S` [Example 52, 4-Allyl-2-[4-(2-methoxyphenyl)piperazin-1-ylmethyl]-5-phenyl-1,2,4-triazole-3(2H,4H)-thione], the Ki at 5-HT1A receptors was 0.15 µM; at α2D-adrenoceptors, 0.148 µM; on D2 dopamine receptors, 0.222 µM; at α1-adrenoceptors it was over 0.5 µM.

For the compound `CCCn1c(-c2ccncc2)nn(CN2CCN(c3ccccc3OC)CC2)c1=S` [Example 53, 2-[4-(2-Methoxyphenyl)piperazin-1-ylmethyl]-4-propyl-5-(4-pyridyl)-1,2,4-triazole-3(2H,4H)-thione], the inhibitory constant (Ki) at 5-HT1A receptors was 0.117 µM; on α2D-adrenoceptors it was 0.15 µM; on D2 dopamine receptors it was 0.274 µM; at α1-adrenoceptors, over 0.5 µM.

As for `COc1ccccc1N1CCN(Cn2nc(C(F)(F)F)n(C)c2=S)CC1` [Example 54, 2-[4-(2-Methoxyphenyl)piperazin-1-ylmethyl]-4-methyl-5-(trifluoromethyl)-1,2,4-triazole-3(2H,4H)-thione], the Ki on 5-HT1A receptors was 0.135 µM; on α2D-adrenoceptors, 0.218 µM; at D2 dopamine receptors it was 0.243 µM; on α1-adrenoceptors, 0.477 µM.

On to `COc1ccccc1N1CCN(Cn2ncn(C)c2=S)CC1` [Example 55, 2-[4-(2-Methoxyphenyl)piperazin-1-ylmethyl]-4-methyl-1,2,4-triazole-3(2H,4H)-thione], for which the Ki at 5-HT1A receptors was 0.108 µM; on α2D-adrenoceptors, 0.194 µM; at D2 dopamine receptors it was 0.073 µM; on α1-adrenoceptors, 0.358 µM.

In the case of `C=CCn1c(-c2ccco2)nn(CN2CCN(c3ccccc3OC)CC2)c1=S` [Example 56, 4-Allyl-5-(2-furyl)-2-[4-(2-methoxyphenyl)piperazin-1-ylmethyl]-1,2,4-triazole-3(2H,4H)-thione], the inhibition constant (Ki) on 5-HT1A receptors was 0.105 µM; on α2D-adrenoceptors, 0.197 µM; at D2 dopamine receptors it was 0.158 µM; at α1-adrenoceptors, 0.401 µM.

Consider `C=CCn1c(-c2cccnc2)nn(CN2CCN(c3ncccn3)CC2)c1=S` [Example 57, 4-Allyl-5-(3-pyridyl)-2-[4-(pyrimidin-2-yl)piperazin-1-ylmethyl]-1,2,4-triazole-3(2H,4H)-thione], for which the Ki at 5-HT1A receptors, on D2 dopamine receptors and on α1-adrenoceptors was over 0.5 µM each time. The inhibition at 1 µM at α2D-adrenoceptors (10^-6 M, [3H]idazoxan, read-out: % displacement at 10^-6 M, α2D) amounted to 95%.
